Results on 19 compounds are retold here after US8227504B2, “Substituted N-phenyl-pyrrolidinylmethylpyrrolidine amides and therapeutic use thereof” (Sanofi, priority 2007, dated 2012).

Usually Ki stands for the equilibrium dissociation constant of an inhibitor or competing ligand from its target.

The structures appear in SMILES notation.

In this test the target is T1, rhesus (Macacca Mulatta) H3 receptor (Macaca mulatta, UniProt Q865E1).
T1 construct: pcDNA5/FRT/TO (Invitrogen) containing the rhesus monkey (Macacca Mulatta) 445 amino acid H3 receptor
T1 sequence (Q865E1 1-445): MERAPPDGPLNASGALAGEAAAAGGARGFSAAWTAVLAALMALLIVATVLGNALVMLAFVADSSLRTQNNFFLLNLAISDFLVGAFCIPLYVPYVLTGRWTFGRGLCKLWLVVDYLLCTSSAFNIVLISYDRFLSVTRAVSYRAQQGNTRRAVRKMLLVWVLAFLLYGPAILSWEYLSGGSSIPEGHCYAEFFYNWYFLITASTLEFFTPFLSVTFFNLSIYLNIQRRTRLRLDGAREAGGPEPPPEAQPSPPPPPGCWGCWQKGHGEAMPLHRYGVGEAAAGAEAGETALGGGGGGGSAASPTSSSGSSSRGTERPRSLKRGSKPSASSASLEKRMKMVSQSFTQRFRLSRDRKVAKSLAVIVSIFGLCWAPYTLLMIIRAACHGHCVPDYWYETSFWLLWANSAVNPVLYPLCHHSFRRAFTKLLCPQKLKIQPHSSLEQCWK
Briefly: Rhesus H3 [3H]-Methylhistamine radioligand binding assay (SPA). The note with it: [3H]-Methylhistamine 2 nM, rhesus H3 membranes, Cheng-Prusoff; read-out: Affinity: ki in Rhesus H3 membrane binding ki. Details: species or system rhesus monkey (Macacca Mulatta). How it is done:
Rhesus H3 membranes were prepared from the Flp-In T-REx 293 Cell Line (Invitrogen) stably transfected with pcDNA5/FRT/TO (Invitrogen) containing the rhesus monkey (Macacca Mulatta) 445 amino acid H3 receptor. (Genbank #AY231164). Stably transfected cultures were amplified in tissue culture flasks by standard tissue culture methods and induced to express rhesus H3 by exposure to 500 ng/ml tetracycline (Cellgro) for 24 hours. After induction, cells were dissociated from flasks utilizing Cell Stripper (Cellgro). Cells were centrifuged (1K×g, 5 min) and pellet frozen in an ethanol-dry ice bath to disrupt cell membranes. Frozen cell pellet was re-suspended in 5 mM HEPES (pH 7.4, Invitrogen) at 10 ml/1000 cm2 of harvested cells. The cell suspension was drawn through an 18 gauge needle (2-3×) followed by a 23 gauge needle (2-3×) to further disrupt cell membranes. The cell suspension was centrifuged (40K×g, 30 min). Cell membrane pellet was re-suspended in 5 mM HEPES (pH 7.4, Invitrogen) at a final protein concentration of 10 mg/ml. Rhesus H3 membranes were stored under liquid nitrogen prior to use in [3H]-Methylhistamine and GTPγS radioligand binding assays.
Rhesus H3 radioligand binding assay was performed using rhesus H3 receptor membranes (prepared as described above), [3H]-Methylhistamine (Perkin Elmer) and WGA SPA beads (wheat germ agglutinin scintillation proximity assay) beads (Amersham). The assay was performed in 96-well Opti-Plates (Packard). Each reaction contained 50 μl rhesus H3 membranes (20-30 μg total protein), 50 μl WGA SPA beads (0.1 μg) and 50 μl of 83Ci/mmol [^3H]-Methylhistamine (final concentration 2 nM) and 50 μl of tested compound. The compounds of this invention and/or vehicle were diluted with binding buffer from 10 mM DMSO stocks. Assay plates were sealed with TopSeal (Perkin Elmer) and mixed on shaker (25° C., 1 hour). Assay plates were read on TopCount scintillation counter (Packard). Results were analyzed by Hill transformation and Ki values were determined by Cheng-Prusoff equation.
`Cc1nc2cc(C(=O)Nc3ccc(N4CCC(CN5CCCC5C)C4)cc3C)ccc2[nH]1` (stereo not shown) [Example 1, 2-M ethyl-1H-benzoimidazole-5-carboxylic acid {2-methyl-4-[3-(2-methyl-pyrrolidin-1-ylmethyl)-pyrrolidin-1-yl]-phenyl}-amide]: the inhibition constant (Ki) was 15.7 nM.

On to `Cc1cc(N2CCC(CN3CCCC3C)C2)ccc1NC(=O)c1cnc(NCCO)c(Cl)c1` (stereo not shown) [Example 2, 5-Chloro-6-(2-hydroxy-ethylamino)-N-{2-methyl-4-[3-(2-methyl-pyrrolidin-1-ylmethyl)-pyrrolidin-1-yl]-phenyl}-nicotinamide], for which the inhibitory constant (Ki) stood at 51.2 nM.

On to `Cc1cc(N2CCC(CN3CCCC3C)C2)ccc1NC(=O)c1cnc2cc(Cl)ccc2c1O` (stereo not shown) [Example 3, 7-Chloro-4-hydroxy-quinoline-3-carboxylic acid {2-methyl-4-[3-(2-methyl-pyrrolidin-1-ylmethyl)-pyrrolidin-1-yl]-phenyl}-amide], for which the Ki turned out to be 94.7 nM.

On to `Cc1cc(N2CCC(CN3CCCC3C)C2)ccc1NC(=O)c1ccc(-n2cccc2)nc1` (stereo not shown) [Example 4, N-{2-Methyl-4-[3-(2-methyl-pyrrolidin-1-ylmethyl)-pyrrolidin-1-yl]-phenyl}-6-pyrrol-1-yl-nicotinamide], for which the Ki worked out at 39.3 nM.

As for `Cc1cc(N2CCC(CN3CCCC3C)C2)ccc1NC(=O)c1ccc2c(c1)CCO2` (stereo not shown) [Example 5, 2,3-Dihydro-benzofuran-5-carboxylic acid {2-methyl-4-[3-(2-methyl-pyrrolidin-1-ylmethyl)-pyrrolidin-1-yl]-phenyl}-amide], the inhibition constant (Ki) amounted to 40.4 nM.

With `Cc1cc(N2CCC(CN3CCCC3C)C2)ccc1NC(=O)c1ccc(COCc2ccccc2)nc1` (stereo not shown) [Example 6, 6-Benzyloxymethyl-N-{2-methyl-4-[3-(2-methyl-pyrrolidin-1-ylmethyl)-pyrrolidin-1-yl]-phenyl}-nicotinamide], the inhibitory constant (Ki) was 95.4 nM.

Consider `Cc1cc(N2CCC(CN3CCCC3C)C2)ccc1NC(=O)c1ccc2c(c1)OCO2` (stereo not shown) [Example 7, Benzo[1,3]dioxole-5-carboxylic acid {2-methyl-4-[3-(2-methyl-pyrrolidin-1-ylmethyl)-pyrrolidin-1-yl]-phenyl}-amide], for which the Ki turned out to be 34.2 nM.

Take `Cc1cc(N2CCC(CN3CCCC3C)C2)ccc1NC(=O)c1ccc2cc[nH]c2c1` (stereo not shown) [Example 8, 1H-Indole-6-carboxylic acid {2-methyl-4-[3-(2-methyl-pyrrolidin-1-ylmethyl)-pyrrolidin-1-yl]-phenyl}-amide]: the Ki amounted to 18 nM.

As for `Cc1cc(N2CCC(CN3CCCC3C)C2)ccc1NC(=O)c1ccc(-n2ccnc2)cc1` (stereo not shown) [Example 9, 4-Imidazol-1-yl-N-{2-methyl-4-[3-(2-methyl-pyrrolidin-1-ylmethyl)-pyrrolidin-1-yl]-phenyl}-benzamide], the Ki amounted to 3.1 nM.

Take `CC(=O)N1CCCC(c2ccc(C(=O)Nc3ccc(N4CCC(CN5CCCC5C)C4)cc3C)cc2)C1` (stereo not shown) [Example 10, 4-(1-Acetyl-piperidin-3-yl)-N-{2-methyl-4-[3-(2-methyl-pyrrolidin-1-ylmethyl)-pyrrolidin-1-yl]-phenyl}-benzamide]: the inhibitory constant (Ki) was determined as 29.8 nM.

Consider `Cc1cc(N2CCC(CN3CCCC3C)C2)ccc1NC(=O)c1ccc(CO)cc1` (stereo not shown) [Example 11, 4-Hydroxymethyl-N-{2-methyl-4-[3-(2-methyl-pyrrolidin-1-ylmethyl)-pyrrolidin-1-yl]-phenyl}-benzamide], for which the Ki came out at 62.1 nM.

On to `COc1ccc2[nH]c(C(=O)Nc3ccc(N4CCC(CN5CCCC5C)C4)cc3C)cc2c1` (stereo not shown) [Example 12, 5-Methoxy-1H-indole-2-carboxylic acid {2-methyl-4-[3-(2-methyl-pyrrolidin-1-ylmethyl)-pyrrolidin-1-yl]-phenyl}-amide], for which the inhibition constant Ki amounted to 61.5 nM.

`Cc1cc(N2CCC(CN3CCCC3C)C2)ccc1NC(=O)c1ccc2c(c1)NC(=O)CNC2=O` (stereo not shown) [Example 13, 2,5-Dioxo-2,3,4,5-tetrahydro-1H-benzo[e][1,4]diazepine-8-carboxylic acid {2-methyl-4-[3-(2-methyl-pyrrolidin-1-ylmethyl)-pyrrolidin-1-yl]-phenyl}-amide]: the Ki was found to be 9.3 nM.

For `COCCNC(=O)c1ccc(C(=O)Nc2ccc(N3CCC(CN4CCCC4C)C3)cc2C)cn1` (stereo not shown) [Example 14, Pyridine-2,5-dicarboxylic acid 2-[(2-methoxy-ethyl)-amide]5-({2-methyl-4-[3-(2-methyl-pyrrolidin-1-ylmethyl)-pyrrolidin-1-yl]-phenyl}-amide)], the Ki is 32.3 nM.

On to `COc1ccc2cc(C(=O)Nc3ccc(N4CCC(CN5CCCC5C)C4)cc3C)oc2c1` (stereo not shown) [Example 15, 6-Methoxy-benzofuran-2-carboxylic acid {2-methyl-4-[3-(2-methyl-pyrrolidin-1-ylmethyl)-pyrrolidin-1-yl]-phenyl}-amide], for which the Ki is 66.7 nM.

As to `Cc1cc(N2CCC(CN3CCCC3C)C2)ccc1NC(=O)c1ccc2c(c1)C(O)C(O)C(C)(C)O2` (stereo not shown) [Example 16, 3,4-Dihydroxy-2,2-dimethyl-chroman-6-carboxylic acid {2-methyl-4-[3-(2-methyl-pyrrolidin-1-ylmethyl)-pyrrolidin-1-yl]-phenyl}-amide], the inhibition constant Ki amounted to 67.6 nM.

For the compound `Cc1ccc2c(O)c(C(=O)Nc3ccc(N4CCC(CN5CCCC5C)C4)cc3C)cnc2n1` (stereo not shown) [Example 17, 4-Hydroxy-7-methyl-[1,8]naphthyridine-3-carboxylic acid {2-methyl-4-[3-(2-methyl-pyrrolidin-1-ylmethyl)-pyrrolidin-1-yl]-phenyl}-amide], the Ki came to 19.2 nM.

In the case of `CC1=NN(c2ccc(C(=O)Nc3ccc(N4CCC(CN5CCCC5C)C4)cc3C)cc2)C(=O)C1` (stereo not shown) [Example 18, N-{2-Methyl-4-[3-(2-methyl-pyrrolidin-1-ylmethyl)-pyrrolidin-1-yl]-phenyl}-4-(3-methyl-5-oxo-4,5-dihydro-pyrazol-1-yl)-benzamide], the Ki came to 59.4 nM.

For the compound `Cc1ccc2oc(C(=O)Nc3ccc(N4CCC(CN5CCCC5C)C4)cc3C)cc(=O)c2c1` (stereo not shown) [Example 19, 6-Methyl-4-oxo-4H-chromene-2-carboxylic acid {2-methyl-4-[3-(2-methyl-pyrrolidin-1-ylmethyl)-pyrrolidin-1-yl]-phenyl}-amide], the inhibitory constant (Ki) stood at 26.5 nM.
